Data published in US6794396B2, “Substituted pyridines useful for inhibiting cholesteryl ester transfer protein activity” (Pharmacia Corporation, priority 1998, dated 2004).
Read-outs that look alike come from different tables or passages of the source.

What was measured:
CETP [1] = experiment: Inhibition of CETP activity in vivo: [3H]CE transfer from HDL to VLDL and LDL after intravenous injection; set-up: species or system golden Syrian hamster; conditions: hamsters, injection into jugular vein, four hours
From the text: Inhibition of CETP by a test compound can be determined by administering the compound to an animal by intravenous injection, determining the rate of transfer of tritium-labeled cholesteryl ester (^3H]CE) from HDL to VLDL and LDL particles, and comparing the rate of transfer with the rate of transfer observed in control animals.
Male golden Syrian hamsters were maintained on a diet of chow containing 0.24% cholesterol for at least two weeks prior to the study. Immediately before the experiment, animals were anesthetized with pentobarbital. Anesthesia was maintained throughout the experiment. Indwelling catheters were inserted into the jugular vein and carotid artery. Test compound, Dimethyl 5,5′-dithiobis[2-difluoromethyl)-4-(2-methylpropyl)-6-(trifluoromethyl)-3-pyridinecarboxylate] (Compound 181), was dissolved as a 80 mM stock solution in vehicle (2% ethanol: 98% PEG 400, Sigma Chemical Company, St. Louis, Mo., USA). At the start of the experiment all animals received 0.2 ml of a solution containing [^3H]-CE-HDL into the jugular vein. [^3H[-CE-HDL is a preparation of human HDL containing tritium-labeled cholesteryl ester, and was prepared according to the method of Glenn et al. (“Quantification of Cholesteryl Ester Transfer Protein (CETP): A) CETP Activity and B) Immunochemical Assay of CETP Protein,” Meth. Enzymol., Glenn and Melton (Meth. Enzymol., 263, 339-351 (1996) which is incorporated herein by reference).
After 2 minutes, the animals received 0.1 ml of the test solution injected into the jugular vein. Control animals received 0.1 ml of the vehicle solution without test compound. After 5 minutes, the first blood samples (0.5 ml) were taken from the carotid artery and collected in standard microtainer tubes containing ethylenediamine tetraacetic acid. Saline (0.5 ml) was injected to flush the catheter and replace blood volume. Subsequent blood samples were taken at two hours and four hours by the same method. Blood samples were mixed well and kept on ice until the completion of the experiment.
Plasma was obtained by centrifugation of the blood samples at 4° C. The plasma (50 μl) was then treated with 5 μl of precipitating reagent (dextran sulfate, 10 g/l; 0.5M magnesium chloride to remove VLDL/LDL. After centrifugation, the resulting supernatant (25 μl) containing the HDL was analyzed for radioactivity using a liquid scintillation counter. The percentage [^3H] CE transferred from HDL to LDL and VLDL (% transfer) was calculated based on the total radioactivity in equivalent serum samples before precipitation. Typically, the amount of transfer from HDL to LDL and VLDL in control animals was 30 to 35% after four hours. The polyethylene glycol vehicle was determined to have no effect on CETP activity in this model.
(Compound 181), and five animals that received vehicle. At two hours, mean values of 13% [^3H]-Ce transfer from HDL to LDL and VLDL were obtained for the control animals, but only 4.7% transfer for the animals receiving Compound 181. […] Student t-tests were performed to determine if the means for control and animals treated with Compound 181 were statistically different.

CETP [2] = molecular target: T1, CETP (Homo sapiens, UniProt P11597); experiment: CETP activity in vitro: transfer of [3H]CE from HDL donor to LDL acceptor particles; format: biochemical
T1 construct: made in house; host or cells: CHO cells (serum-free conditioned medium)
T1 sequence (P11597 18-493): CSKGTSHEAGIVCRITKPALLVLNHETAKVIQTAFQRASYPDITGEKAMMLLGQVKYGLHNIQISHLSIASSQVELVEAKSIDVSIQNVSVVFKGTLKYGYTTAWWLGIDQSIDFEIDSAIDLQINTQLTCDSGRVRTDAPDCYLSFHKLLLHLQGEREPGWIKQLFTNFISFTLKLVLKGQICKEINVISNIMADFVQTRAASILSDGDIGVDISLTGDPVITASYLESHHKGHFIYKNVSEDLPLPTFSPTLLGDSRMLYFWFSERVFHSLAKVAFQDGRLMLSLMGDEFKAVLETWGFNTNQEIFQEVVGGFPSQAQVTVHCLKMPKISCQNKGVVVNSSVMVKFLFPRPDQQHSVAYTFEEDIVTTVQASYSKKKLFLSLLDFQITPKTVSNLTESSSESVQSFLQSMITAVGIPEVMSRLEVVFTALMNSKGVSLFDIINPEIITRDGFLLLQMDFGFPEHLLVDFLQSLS
Summary of the method: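 Transfer of radiolabelled cholesteryl ester from HDL to LDL was followed over 2 h at 37 °C in Tris buffer (pH 7.4, 150 mM NaCl, 2 mM EDTA, 1% BSA), using CETP secreted by transfected CHO cells. Radioactivity in dextran sulfate/Mg-precipitated LDL was measured by scintillation counting, giving IC50.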

[3] = molecular target: T2, CETP in human plasma or serum pool (Homo sapiens, UniProt P11597); experiment: Whole serum CETP activity assay (tritiated cholesterol ester); format: biochemical; conditions: 4 hours at 37° C.
T2 construct: from tissue; host or cells: pooled human EDTA plasma or serum from healthy volunteers
T2 sequence (P11597 18-493): T1 sequence (P11597 18-493)
Protocol: Blood was obtained from healthy volunteers recruited from the personnel of Monsanto Company, Saint Louis, Mo. Blood was either collected in tubes containing EDTA (EDTA plasma pool) or in tubes without EDTA (spun to form the serum pool). The EDTA human plasma pool or human serum pool, previously stored at −20° C., was thawed at room temperature, and centrifuged for 5 minutes to remove any particulate matter. Tritiated HDL, radiolabeled in the cholesteryl ester moiety ([^3H]CE-HDL) as described by Morton and Zilversmit (J. Biol. Chem., 256, 11992-95 (1981) which is incorporated by reference herein), was added to the plasma or serum to a final concentration of (25 μg/ml cholesterol).
Inhibitor compounds were added to the plasma or serum as follows: Equal volumes of the plasma or serum containing the [^3H]CE-HDL (396 μl) were pipetted into micro tubes (Titertube®, Bio-Rad Laboratories, Hercules, Calif.). Compounds, usually dissolved as 20-50 mM stock solutions in DMSO, were serially diluted in DMSO (or an alternative solvent in some cases, such as dimethylformamide or ethanol). Four μl of each of the serial dilutions of inhibitor compounds or DMSO alone were then added to each of the plasma or serum tubes. The tubes were immediately mixed. Triplicate aliquots (100 μl) from each plasma or serum tube were then transferred to wells of 96-well round-bottomed polystyrene microtiter plates (Corning, Corning, N.Y.). Plates were sealed with plastic film and incubated at 37° C. for 4 hours.
Test wells contained plasma or serum with dilutions of inhibitor compounds. Control wells contained plasma or serum with DMSO alone. Blank wells contained plasma or serum with DMSO alone that were left in the micro tubes at 4° C. for the 4 hour incubation and were added to the microtiter wells at the end of the incubation period. VLDL and LDL were precipitated by the addition of 10 μl of precipitating reagent (1% (w/v) Dextran Sulfate (Dextralip50)/0.5M magnesium chloride, pH 7.4) to all wells. The wells were mixed on a plate mixer and then incubated at ambient temperature for 10 min. The plates were then centrifuged at 1000×g for 30 mins at 10° C. The supernatants (50 μl) from each well were then transferred to Picoplate™ 96 plate wells (Packard, Meriden, Conn.) containing […] Microscint™-40 (Packard, Meriden, Conn.). The plates were heat-sealed (TopSeal™-P, Packard, Meriden, Conn.) according to the manufacturers directions and mixed for 30 min.
Radioactivity was measured on a microplate scintillation counter (TopCount, Packard, Meriden, Conn.). […] The maximum percent transfer (in the control wells) was determined using the following equation: [formula]
The percent of control transfer determined in the wells containing inhibitor compounds was determined as follows: [formula]
IC50 values were then calculated from plots of % control versus concentration of inhibitor compound.

[4] = 50% inhibition of [3H]CE transfer from HDL to LDL, 2 hours at 37° C., read-out: IC50(μm)
[5] = IC50(μm), 50% inhibition of [3H]CE transfer from HDL to LDL, 2 hours at 37° C.
[6] = Table 6, compounds of formula T-6, read-out: IC50

## COC(=O)c1c(C(F)F)nc(C(F)(F)F)c(S)c1CC(C)C [Compound 7, Methyl 2-(Difluoromethyl)-5-mercapto-4-(2-methylpropyl)-6-(trifluoromethyl)-3-pyridinecarboxylate]
CETP [1]
  % Transfer of [3H]-CE from HDL to LDL and VLDL: 10.6%
CETP [1]; versus control animals
  % Inhibition of CETP activity: 50%
CETP [2]; [4]
  IC50: 8.75 µM
[3]
  IC50 whole serum CETP activity: 17 µM

## COC(=O)c1c(C(F)F)nc(C(F)(F)F)c(C(=O)Oc2cc(OC)c(OC)c(OC)c2Cc2ccc(F)cc2)c1CC(C)C [Compound 171, 3-Methyl 5-[2-(4-Fluorobenzyl)-3,4,5-(trimethoxy)phenyl]2-(Difluoromethyl)-4-(2-methylpropyl)-6-(trifluoromethyl)-3,5-pyridicarboxylate]
other
  melting point: 131.5 to 133.5 °C
CETP [2]; [4]
  IC50: 70 µM

## COC(=O)c1c(C(F)F)nc(C(F)(F)F)c(C(=O)Oc2ccccc2OC)c1CC(C)C [Compound 172, 3-Methyl 5-(2-Methoxyphenyl) 2-(Difluoromethyl)-4-(2-methylpropyl)-6-(trifluoromethyl)-3,5-pyridicarboxylate]
other
  melting point: 73 to 74.5 °C
CETP [2]; [4]
  IC50: > 100 µM

## COC(=O)c1c(C(F)F)nc(C(F)(F)F)c(C(=O)Oc2ccc(Cl)cc2)c1CC(C)C [Compound 173, 3-Methyl 5-(4-Chlorophenyl) 2-(Difluoromethyl)-4-(2-methylpropyl)-6-(trifluoromethyl)-3,5-pyridicarboxylate]
other
  melting point: 81.5 to 82.5 °C
CETP [2]; [5]
  IC50: 45 µM

## COC(=O)c1c(C(F)F)nc(C(F)(F)F)c(C(=O)Oc2cc(C)cc(C)c2)c1CC(C)C [Compound 174, 3-Methyl 5-(3,5-Dimethylphenyl) 2-(Difluoromethyl)-4-(2-methylpropyl)-6-(trifluoromethyl)-3,5-pyridicarboxylate]
other
  melting point: 90.5 to 94 °C
CETP [2]; [5]
  IC50: 60 µM

## COC(=O)c1c(C(F)F)nc(C(F)(F)F)c(C(=O)Oc2ccc(C)cc2C)c1CC(C)C [Compound 177, 3-Methyl 5-(2,4-Dimethylphenyl) 2-(Difluoromethyl)-4-(2-methylpropyl)-6-(trifluoromethyl)-3,5-pyridicarboxylate]
other
  melting point: 95 to 99 °C
CETP [2]; [4]
  IC50: 70 µM

## COC(=O)c1c(C(F)F)nc(C(F)(F)F)c(SSc2ccc(C(C)(C)C)cc2)c1CC(C)C [Compound 180, Methyl 5-(4-t-Butylphenyldithio)-2-(difluoromethyl)-4-(2-methylpropyl)-6-(trifluoromethyl)-3-pyridinecarboxylate]
CETP [2]; Table 5, compounds of formula T-5, read-out: IC50
  IC50: 0.45 µM
[3]
  IC50 whole serum CETP activity: 9 µM

## COC(=O)c1c(C(F)F)nc(C(F)(F)F)c(CSc2ccc(Cl)c(Cl)c2)c1CC(C)C [Compound 214, Methyl 5-[(3,4-Dichlorophenyl)thiomethyl]-2-(difluoromethyl)-4-(2-methylpropyl)-6-(trifluoromethyl)-3-pyridinecarboxylate]
CETP [2]; [6]
  IC50: 2 µM
[3]
  IC50 whole serum CETP activity: 70 µM

## COC(=O)c1c(C(F)F)nc(C(F)(F)F)c(CSc2ccc3ccccc3c2)c1CC(C)C [Compound 215, Methyl 5-[(2-Naphthyl)thiomethyl]-2-(difluoromethyl)-4-(2-methylpropyl)-6-(trifluoromethyl)-3-pyridinecarboxylate]
CETP [2]; [6]
  IC50: 2 µM
[3]
  IC50 whole serum CETP activity: 110 µM
